This is an account of results in patent US12607406B2, “Recombinant virus, composition comprising the same, and uses thereof” (ACADEMIA SINICA, priority 2016, dated 2026).

What all share (assay type): biochemical
Experiment [1] relates to Influenza A virus A/WSN/33 (H1N1) neuraminidase (NA) on virus, variant 44-72-219-G, substitutions at positions 44, 72, and 219, SEQ ID NO: 11.
Experiment [2] concerns Influenza A virus A/WSN/33 (H1N1) neuraminidase (NA) on virus, variant 44-G, substitution at position 44, SEQ ID NO: 8.
Experiment [3] concerns Influenza A virus A/WSN/33 (H1N1) neuraminidase (NA) variant 44-72-219-G, substitutions at positions 44, 72, and 219, SEQ ID NO: 11.
For experiment [4], the system named is Influenza A virus A/WSN/33 (H1N1) neuraminidase (NA) on virus, variant 44-72-G, substitutions at positions 44 and 72, SEQ ID NO: 10.
Experiment [5] relates to Influenza A virus A/WSN/33 (H1N1) neuraminidase (NA) variant 72-G, substitution at position 72, SEQ ID NO: 9.
Experiment [6] deals with Influenza A virus A/WSN/33 (H1N1) neuraminidase (NA) on virus, variant 72-G, substitution at position 72, SEQ ID NO: 9.
Experiment [7] deals with Influenza A virus A/WSN/33 (H1N1) neuraminidase (NA) variant 44-G, substitution at position 44, SEQ ID NO: 8.
Experiment [8] deals with Influenza A virus A/WSN/33 (H1N1) neuraminidase (NA) variant 44-72-G, substitutions at positions 44 and 72, SEQ ID NO: 10.
The test system of experiment [9] is Influenza A virus A/WSN/33 (H1N1) neuraminidase (NA), all mutants (44-G, 72-G, 44-72-G, 44-72-219-G).

For orientation: Km means the concentration of substrate that gives half-maximal velocity. What is called Vmax is the top rate of the reaction or transport when substrate is in excess. `CC(=O)N[C@H]1[C@H]([C@H](O)[C@H](O)CO)O[C@@](O[C@H]2[C@@H](O)[C@@H](CO)O[C@@H](O[C@H]3[C@H](O)[C@@H](NC(C)=O)C(O)O[C@@H]3CO)[C@@H]2O)(C(=O)O)C[C@@H]1O` (stereo partly shown) [3SLN, 3′-sialyl-N-acetyllactosamine]: the Km in [1] came to 281 µM; in [2], 274 µM; in experiment [3], 299 µM; in experiment [4], 285 µM; in experiment [5], 289 µM; in experiment [6], 268 µM. For the same molecule, the values for the Km in experiment [7] and in experiment [8] were 295 µM and 296 µM, respectively. For the same molecule, the Kcat was 139.1 s⁻¹ in [3], 364.4 s⁻¹ in experiment [5], 389.8 s⁻¹ in [7] and 136.4 s⁻¹ in [8]. For the same molecule, the maximal velocity (Vmax) in experiment [3] was determined as 1.48 nM/s; in experiment [5], 3.89 nM/s; in experiment [7] it was 4.09 nM/s; in experiment [8], 1.46 nM/s. Also, the Km value increased entry in experiment [5] and in experiment [7] was “more than two-fold” each time.
For the molecule `CC(=O)N[C@H]1[C@H]([C@H](O)[C@H](O)CO)O[C@@](Oc2ccc3c(C)cc(=O)oc3c2)(C(=O)O)C[C@@H]1O` [4-Muα-Neu5Ac, 2-(4-methylumbelliferyl)-α-D-N-acetylneuraminic acid], the Km in [1] was 415 µM; in experiment [2], 508 µM; in [3], 597 µM; in experiment [4], 429 µM; in [5], 591 µM; in experiment [6], 485 µM. The Km in experiment [7] was found to be 595 µM; in experiment [8], 588 µM. The Kcat is 105.8 s⁻¹ in [3], 426.8 s⁻¹ in [5], 468.5 s⁻¹ in experiment [7] and 100.3 s⁻¹ in [8]. Also, the maximum rate (Vmax) in experiment [3] was 1.2 nM/s; in experiment [5], 4.45 nM/s; in experiment [7], 4.95 nM/s; in experiment [8], 1.15 nM/s. In addition, the “Km values of all mutants” value in experiment [9] is recorded as “similar”.
With `CC(=O)N[C@H]1[C@H]([C@H](O)[C@H](O)CO)O[C@@](OC[C@H]2O[C@@H](O[C@H]3[C@H](O)[C@@H](NC(C)=O)C(O)O[C@@H]3CO)[C@H](O)[C@@H](O)[C@H]2O)(C(=O)O)C[C@@H]1O` (stereo partly shown) [6SLN, 6′-sialyl-N-acetyllactosamine], the Km in experiment [1] was found to be 515 µM; in experiment [2], 525 µM; in experiment [3], 675 µM; in experiment [4], 521 µM; in [5], 688 µM; in [6], 540 µM. Moreover, the values for the Km in experiment [7] and in experiment [8] were 684 µM and 679 µM, respectively. Moreover, the Kcat in [3] was 20.7 s⁻¹; in experiment [5], 83.6 s⁻¹; in [7], 90.6 s⁻¹; in experiment [8] it was 19.8 s⁻¹. For the same molecule, the Vmax in [3] is recorded as 0.21 nM/s; in experiment [5], 0.85 nM/s; in [7], 0.92 nM/s; in experiment [8], 0.24 nM/s. Further, the “Km values of all mutants” value in [9] was “similar”.
